This is an account of results in patent US20230021483A1, “[…] […] METHOD AND CLASSIFICATION OF PHARMACEUTICAL COMPONENTS BY USING TRANSCRIPTOMES” (National Institutes of Biomedical Innovation, Health and …, priority 2016, published 2023).

Peptide text beside a SMILES is read from it. * marks the point of attachment. X1 = CCCCCCCCCCCCCCCC(=O)OCC(C*)OC(=O)CCCCCCCCCCCCCCC; Palmitoyl = CCCCCCCCCCCCCCCC(=O)*

Format in all cases: in vivo, C57BL/6 mice
In data set [1] the test system is spleen (SP). Put plainly: Whole organ transcriptome (GeneChip microarray) of spleen 6 h after adjuvant administration: sDEGs, hierarchical clustering. For adjuvant group (cluster) in SP: key: G1 (interferon signaling); G2 (metabolism of lipids and lipoproteins); G3 (response to stress); G4 (response to wounding); G5 (phosphate-containing compound metabolic process); G6 (phagosome). Conditions: for Number of gene probes with statistically significant changes (sDEGs), SP, Down / Number of gene probes with statistically significant changes (sDEGs), SP, Up: i.d. administration; for Number of gene probes with statistically significant changes (sDEGs), SP, Down: fold change <0.667, p<0.01, customized PA call=1, 6 h after adjuvant; for Number of gene probes with statistically significant changes (sDEGs), SP, Up: fold change >1.5, p<0.01, customized PA call=1, 6 h after adjuvant.

Data set [2] concerns liver (LV). Put plainly: Whole organ transcriptome (GeneChip microarray) of liver 6 h after adjuvant administration: sDEGs, hierarchical clustering. For adjuvant group (cluster) in LV: key: G1 (interferon signaling); G2 (metabolism of lipids and lipoproteins); G3 (response to stress); G4 (response to wounding); G5 (phosphate-containing compound metabolic process); G6 (phagosome). As to conditions: liver; for Number of gene probes with statistically significant changes (sDEGs), LV, Down / Number of gene probes with statistically significant changes (sDEGs), LV, Up: i.d. administration, 6 h after adjuvant; for Number of gene probes with statistically significant changes (sDEGs), LV, Down: fold change <0.667, p<0.01, customized PA call=1; for Number of gene probes with statistically significant changes (sDEGs), LV, Up: fold change >1.5, p<0.01, customized PA call=1.

Data set [3] deals with inguinal lymph nodes (LN). Description: Whole organ transcriptome (GeneChip microarray) of draining inguinal lymph nodes 6 h after adjuvant administration: sDEGs, gene modules, hierarchical clustering. For adjuvant group (cluster) in LN: key: G1 (interferon signaling); G2 (metabolism of lipids and lipoproteins); G3 (response to stress); G4 (response to wounding); G5 (phosphate-containing compound metabolic process); G6 (phagosome). As to conditions: for Number of gene probes with statistically significant changes (sDEGs), LN, Down / Number of gene probes with statistically significant changes (sDEGs), LN, Up: i.d. administration, 6 h after adjuvant; for Number of gene probes with statistically significant changes (sDEGs), LN, Down: fold change <0.667, p<0.01, customized PA call=1; for Number of gene probes with statistically significant changes (sDEGs), LN, Up: fold change >1.5, p<0.01, customized PA call=1.

The test system of data set [4] is preferentially upregulated genes in LV, SP, LN. Put plainly: Z-score-based differential gene expression analysis (adjuvant group- or adjuvant-associated genes, 40 module mapping, TargetMine annotation). As to conditions: z-score selected genes; TargetMine and IPA upstream cytokine analyses. The source says:
Each sample's FC value was converted into a z-score on a gene basis by using the entire data set for each organ. The Z-score of the triplicates of interest were summed for each adjuvant. For example, the three sample z-score in the LV sample following cdiGMP administration was summed on a gene-by-gene basis, after which the summed scores of >3 genes were selected as relatively preferentially expressed genes in the LV after cdiGMP administration. The following threshold was applied for selections. […] G2^LV: ALM_IP(z>1) & bCD(z>1) & ENDCN(z>1) & FCA(z>1). […] G4^LV: MALP2s(z>3). […] G2^SP: ENDCN_x2+ENDCN_x3(z>2) & ALM_IP(z>3) & bCD(z>3). […] G4^SP: ADX_ID_x2+ADX_ID_x3(z>2) & ADX_IP(z>3) & MALP2s(z>3). […] G2^LN: bCD(z>3) & FCA(z>3). […] G5^LN: K3(z>1.5) & K3SPG_x1+K3SPG_x2(z>1) & D35_x1+D35_x3(z>1). G6^LN: AddaVax(z>3).

The subject of data set [5] is LV, SP and LNs. Put plainly: Whole organ transcriptome across organs (adjuvant gene space): gene responses and adjuvant grouping. Conditions: hierarchical clustering; LV, SP and/or LNs.
Data set [6] deals with circulating blood cells. Put plainly: Hematological cell count of peripheral blood 6 h after adjuvant administration (VetScan HMII). Conditions: mouse, in vivo. On the procedure:
Take about 200 μL of blood from the retro-orbital venous plexus with a non-heparinized capillary tube and place the blood into a 1.5 mL tube comprising 2 μL of 10% EDTA-2K for hematological testing. Thoroughly mix the sample by gentle tapping. Stored at room temperature until hematological testing.
The hematological cell count was found using VetScan HMII (Abaxis). 50 μl of EDTA-2K blood sample was diluted by adding 250 μl of saline. Measurements are taken with VetScan HMII by following the instruction.
In a preliminary experiment, FCA and ALM were tested at different points up to 72 hours. […] At 6 hours after adjuvant administration, LV, SP, and LN (both sides) were removed to study the gene expression thereof by using Affimetrix Genechip microarray system (Affymetrix). The sampled organs were each placed in a tube containing RNAlater. The tube was maintained at 4° C. overnight, and stored at −80° C. until use. Blood was also collected after 6 hours from adjuvant administration for general hematological testing. About 200 μL of blood was taken from the retro-orbital venous plexus with a non-heparinized capillary tube and placed into a 1.5 mL tube comprising 2 μL of 10% EDTA-2K for hematological testing. The hematological cell count was found using VetScan HMII (Abaxis). 50 μl of EDTA-2K blood sample was diluted by adding 250 μl of saline. Measurements were taken with VetScan HMII by following the instruction.
The effect of adjuvant administration with respect to the changes in several hematological parameters was investigated. The following parameters were studied: white blood cells (WBC), lymphocytes (LYM), monocytes (MON), granulocytes (GRA), relative (%) content of lymphocytes (LY %), relative (%) content of monocytes (MO %), relative (%) content of granulocytes (GR %), red blood cells (RBC), hemoglobins (Hb, HGB), hematocrits (HCT), mean corpuscular volume (MCV), mean corpuscular hemoglobins (MCH), mean corpuscular hemoglobin concentration (MCHC), red blood cell distribution width (RDW), platelets (PLT), platelet concentration (PCT), mean platelet volume (MPV), and platelet distribution width (PDW).

For Polyinosine-polycytidylic acid [PolyIC], the “adjuvant group (cluster) in SP” value in data set [1] (hierarchical clustering) was “G1”. Further, in data set [1], the “Number of gene probes with statistically significant changes (sDEGs), SP, Down” value was 738 and the “Number of gene probes with statistically significant changes (sDEGs), SP, Up” value is on record as 1360. Besides, the “adjuvant group (cluster) in LV” value in data set [2] (hierarchical clustering) was “G1”. Besides, in data set [2], the “Number of gene probes with statistically significant changes (sDEGs), LV, Down” value was found to be 1122 and the “Number of gene probes with statistically significant changes (sDEGs), LV, Up” value is reported as 516. In addition, in data set [3] (LN, 6 h), the “module M40^LN (immune system process; dendritic cells, macrophages, neutrophils, stromal cells)” value is given as “strongly induced”. For the same compound, the “adjuvant group (cluster) in LN” value in data set [3] (hierarchical clustering, lymph node) was “G1”. Besides, in data set [3] (lymph node), the “Number of gene probes with statistically significant changes (sDEGs), LN, Down” value stood at 1460 and the “Number of gene probes with statistically significant changes (sDEGs), LN, Up” value is listed as 2203. In data set [4], the “adjuvant group-associated biological features” value was “strongly associated with type I and type II interferon responses”. Moreover, in data set [5], the “adjuvant group (cluster) within the adjuvant gene space” value was “group (G) 1”. Moreover, in data set [6], the leukopenia result is recorded as “caused leukopenia” and the lymphopenia result was “strongly induced”.

Consider `CCCCCCCCCCCCCCCC(=O)N[C@@H](CSCC(COC(=O)CCCCCCCCCCCCCCC)OC(=O)CCCCCCCCCCCCCCC)C(=O)N[C@@H](CO)C(=O)N[C@@H](CCCCN)C(=O)N[C@@H](CCCCN)C(=O)N[C@@H](CCCCN)C(=O)N[C@@H](CCCCN)C(=O)O` (stereo partly drawn) [Pam3CSK4, Pam-3-Cys-Ser-Lys-Lys-Lys-Lys] (Palmitoyl-C(X1)SKKKK-OH), for which the “monocytosis (monocytes in blood)” value in data set [6] is “clearly induced”.

Regarding `Nc1nc2c(ncn2[C@@H]2O[C@@H]3COP(=O)(O)O[C@H]4[C@@H](O)[C@H](n5cnc6c(=O)[nH]c(N)nc65)O[C@@H]4COP(=O)(O)O[C@H]3[C@H]2O)c(=O)[nH]1` [cdlGMP], in data set [1], the “Number of gene probes with statistically significant changes (sDEGs), SP, Down” value is recorded as 261 and the “Number of gene probes with statistically significant changes (sDEGs), SP, Up” value was determined as 707. For the same compound, in data set [2], the “Number of gene probes with statistically significant changes (sDEGs), LV, Down” value turned out to be 218 and the “Number of gene probes with statistically significant changes (sDEGs), LV, Up” value is reported as 280. Further, in data set [3] (lymph node), the “Number of gene probes with statistically significant changes (sDEGs), LN, Down” value stood at 908 and the “Number of gene probes with statistically significant changes (sDEGs), LN, Up” value is on record as 1579.
